What all share (format): functional
One assay concerns CCRF-CEM. In words: Antiproliferative activity against human CCRF-CEM cells.
The subject of the next assay is HL-60. In words: Antiproliferative activity against human HL60 cells.
A further assay relates to MOLT-4. In words: Antiproliferative activity against human MOLT4 cells.
The subject of the next assay is RPMI-8226. The experiment in a line: Antiproliferative activity against human RPMI8226 cells.
A further assay concerns EKVX. In words: Antiproliferative activity against human EKVX cells.
A further assay deals with HOP-92. In words: Antiproliferative activity against human HOP92 cells. Conditions: for TGI: read-out: pTGI (converted).
A further assay relates to HCT-116. The experiment in a line: Antiproliferative activity against human HCT116 cells.
The subject of a further assay is HCT-15. In words: Antiproliferative activity against human HCT15 cells.
Another assay has as its system SF-295. In words: Antiproliferative activity against human SF295 cells.
The next assay concerns SNB-75. In words: Antiproliferative activity against human SNB75 cells.
The subject of the next assay is LOX IMVI. In words: Antiproliferative activity against human LOX IMVI cells. Conditions: for TGI: read-out: pTGI (converted).
For the next assay, the system named is SK-MEL-5. In words: Antiproliferative activity against human SK-MEL-5 cells.
For another assay, the system named is UACC-62. The experiment in a line: Antiproliferative activity against human UACC62 cells.
In another assay the test system is 786-0. In words: Antiproliferative activity against human 786-0 cells.
The next assay concerns CAKI-1. In words: Antiproliferative activity against human CAKI-1 cells.
A further assay deals with RXF 393. In words: Antiproliferative activity against human RXF393 cells.
Another assay concerns UO-31. The experiment in a line: Antiproliferative activity against human UO31 cells.
Another assay deals with PC-3. In words: Antiproliferative activity against human PC3 cells.
The subject of the next assay is DU-145. The experiment in a line: Antiproliferative activity against human DU145 cells.
The subject of the next assay is Hs-578T. In words: Antiproliferative activity against human HS578T cells.
A short description of assay [1]: Antiproliferative activity against human […] cells.
The subject of a further assay is SF-539. In words: Antiproliferative activity against human SF539 cells.
In the next assay the test system is SR. The experiment in a line: Antiproliferative activity against human SR cells. Conditions: for TGI: read-out: pTGI (converted).

The term GI50 denotes the concentration that inhibits growth by half. Read a high GI50 as lower sensitivity of the cells. Consider `COc1ccc(-n2cc(-c3ccc(Cl)cc3)[nH]c2=S)cc1Cl`, for which the GI50 was 63.1 µM with CCRF-CEM; greater than 100 µM in the assay on HL-60; 39.8 µM with MOLT-4; 50.1 µM in the assay on RPMI-8226; 39.8 µM in the assay on EKVX; 15.8 µM in the assay on HOP-92. In addition, the GI50 is 50.1 µM in the assay with HCT-116; greater than 100 µM in the assay on HCT-15; 25.1 µM in the assay on SF-295; 20 µM in the assay on SNB-75; 100 µM with LOX IMVI; 39.8 µM in the assay on SK-MEL-5. The 50% growth inhibitory concentration (GI50) with UACC-62 was 79.4 µM; in the assay on 786-0 it was 20 µM; in the assay with CAKI-1, 25.1 µM; with RXF 393, 25.1 µM; in the assay on UO-31, 20 µM; in the assay on PC-3 it was 31.6 µM. The GI50 was 39.8 µM in the assay on DU-145, 25.1 µM in the assay on Hs-578T, 20 µM in assay [1] and 20 µM with SF-539.

As for `COc1ccc(-c2cn(-c3ccc(OC)c(OC)c3)c(=O)[nH]2)cc1`, the GI50 is greater than 100 µM with CCRF-CEM; 39.8 µM in the assay on HL-60; 1.58 µM in the assay on MOLT-4; greater than 100 µM in the assay with RPMI-8226; 0.1 µM in the assay on SR; greater than 100 µM in the assay with EKVX. The GI50 in the assay with HOP-92 is greater than 100 µM; in the assay with HCT-116 it was greater than 100 µM; in the assay with HCT-15, greater than 100 µM; in the assay on SF-295, greater than 100 µM; with SNB-75 it was 25.1 µM; in the assay with LOX IMVI it was greater than 100 µM. The GI50 with SK-MEL-5 is 63.1 µM; in the assay with UACC-62 it was greater than 100 µM; in the assay with 786-0 it was greater than 100 µM; in the assay with CAKI-1, greater than 100 µM; in the assay on UO-31, greater than 100 µM; in the assay with PC-3 it was greater than 100 µM. In addition, the 50% growth inhibitory concentration (GI50) is greater than 100 µM in the assay with DU-145, greater than 100 µM in the assay with Hs-578T, 50.1 µM in assay [1] and greater than 100 µM in the assay with SF-539. The TGI in the assay with SR was 0.631 µM.

In the case of `COc1ccc(-n2cc(-c3cc(OC)c(OC)c(OC)c3)[nH]c2=S)cc1OC`, the GI50 is greater than 100 µM in the assay with CCRF-CEM; greater than 100 µM in the assay on HL-60; 6.31 µM with MOLT-4; greater than 100 µM in the assay with RPMI-8226; 2.51 µM with SR; greater than 100 µM in the assay on EKVX. Further, the GI50 in the assay on HOP-92 was greater than 100 µM; with HCT-116, greater than 100 µM; in the assay with HCT-15 it was greater than 100 µM; in the assay on SF-295, greater than 100 µM; in the assay with SNB-75, 63.1 µM; with LOX IMVI, greater than 100 µM. Besides, the GI50 with SK-MEL-5, in the assay on UACC-62, with 786-0, in the assay with CAKI-1, in the assay on RXF 393 and in the assay on UO-31 was greater than 100 µM throughout. Moreover, the GI50 (with PC-3; in the assay with DU-145; with Hs-578T; in assay [1]; with SF-539) was greater than 100 µM each time. In addition, the TGI with SR was 7.94 µM.

What is called LC50 is the concentration lethal to half of the exposed cells or organisms. Read a high LC50 as lower toxicity. On to `COc1ccc(-c2cn(-c3ccc(Cl)cc3)c(=S)[nH]2)cc1OC`, for which the GI50 is greater than 100 µM with CCRF-CEM; 3.16 µM in the assay with HL-60; greater than 100 µM in the assay on MOLT-4; 3.98 µM in the assay on RPMI-8226; 3.16 µM with SR; 12.6 µM in the assay on EKVX. Further, the GI50 is 0.316 µM in the assay on HOP-92; 3.98 µM in the assay on HCT-116; 5.01 µM in the assay with HCT-15; 6.31 µM with SF-295; 15.8 µM in the assay on SNB-75; 1.58 µM with LOX IMVI. For the same molecule, the GI50 in the assay on SK-MEL-5 was 3.16 µM; in the assay with 786-0, 6.31 µM; with CAKI-1, 3.16 µM; with RXF 393, 3.16 µM; with UO-31, 39.8 µM; in the assay with PC-3 it was 63.1 µM. Besides, the GI50 with DU-145 is 12.6 µM; in the assay on Hs-578T, 20 µM; in assay [1] it was 6.31 µM; in the assay on SF-539, 31.6 µM. Further, the TGI is 7.94 µM in the assay with HOP-92 and 3.16 µM in the assay with LOX IMVI. This molecule also gave an LC50 in the assay on LOX IMVI of 6.31 µM.

Turning to `COc1cc(-c2cn(-c3ccc(Cl)cc3)c(=O)[nH]2)cc(OC)c1OC`, the GI50 in the assay on CCRF-CEM is greater than 100 µM; with HL-60 it was 0.398 µM; in the assay on MOLT-4, 0.0199 µM; in the assay with RPMI-8226, greater than 100 µM; in the assay on SR it was 0.0316 µM; in the assay with EKVX, greater than 100 µM. Besides, the GI50 in the assay on HOP-92, with HCT-116, in the assay on HCT-15, with SF-295, in the assay with SNB-75 and in the assay on SK-MEL-5 was greater than 100 µM in each case. For the same molecule, the GI50 in the assay on UACC-62, with 786-0, with CAKI-1, in the assay with RXF 393, with UO-31 and in the assay on PC-3 was greater than 100 µM throughout. In addition, the GI50 (in the assay on DU-145; with Hs-578T; in assay [1]; in the assay on SF-539) was greater than 100 µM throughout. In the assay on SR, the TGI was 39.8 µM.

`O=c1[nH]c(-c2ccc(Cl)c(Cl)c2)cn1-c1ccc(Cl)cc1`: the GI50 in the assay on CCRF-CEM was 39.8 µM; in the assay with HL-60, 31.6 µM; in the assay on MOLT-4, 20 µM; in the assay on RPMI-8226 it was 63.1 µM; in the assay with SR, 5.01 µM; in the assay on EKVX it was 31.6 µM. Moreover, the 50% growth inhibitory concentration (GI50) was 15.8 µM with HOP-92; 15.8 µM in the assay on HCT-116; greater than 100 µM with HCT-15; 25.1 µM with SF-295; 20 µM with SNB-75; 39.8 µM with LOX IMVI. The GI50 with SK-MEL-5 is 39.8 µM; in the assay on UACC-62, 25.1 µM; with 786-0, 20 µM; with CAKI-1 it was 25.1 µM; in the assay on RXF 393 it was 31.6 µM; in the assay on UO-31, 25.1 µM. For the same molecule, the GI50 in the assay with PC-3 is 63.1 µM; with DU-145, 31.6 µM; in the assay on Hs-578T, 15.8 µM; in assay [1] it was 25.1 µM; in the assay on SF-539, 20 µM. Moreover, the TGI with SR was 15.8 µM.

Consider `COc1ccc(-n2cc(-c3cc(OC)c(OC)c(OC)c3)[nH]c2=S)cc1Cl`, for which the GI50 in the assay on CCRF-CEM was 0.631 µM; in the assay with HL-60, greater than 100 µM; in the assay with MOLT-4, greater than 100 µM; with RPMI-8226, 5.01 µM; in the assay on EKVX it was 39.8 µM; in the assay on HOP-92, 31.6 µM. Moreover, the GI50 is 25.1 µM in the assay on HCT-116; greater than 100 µM in the assay with HCT-15; 39.8 µM in the assay with SF-295; 20 µM with SNB-75; 6.31 µM in the assay on LOX IMVI; 25.1 µM in the assay with SK-MEL-5. The GI50 is greater than 100 µM in the assay on UACC-62; 25.1 µM in the assay on 786-0; 5.01 µM with CAKI-1; 15.8 µM with RXF 393; 39.8 µM in the assay on UO-31; 50.1 µM in the assay on PC-3. In addition, the GI50 in the assay on DU-145 is 31.6 µM; in the assay on Hs-578T, 15.8 µM; in assay [1] it was 31.6 µM; in the assay on SF-539 it was 20 µM.

For `COc1ccc(/C=C\c2cc(OC)c(OC)c(OC)c2)cc1O` [COMBRETASTATIN A4], the GI50 is 0.1 µM in the assay with CCRF-CEM; 0.1 µM with MOLT-4; 0.158 µM in the assay on RPMI-8226; 0.126 µM in the assay with SR; 0.398 µM in the assay with EKVX; 0.2 µM in the assay with HOP-92. The GI50 was 0.0316 µM in the assay with HCT-116; 0.0316 µM in the assay on HCT-15; 0.0631 µM in the assay with SF-295; 0.794 µM with SNB-75; 0.01 µM in the assay on LOX IMVI; 0.01 µM in the assay on SK-MEL-5. Also, the GI50 in the assay with UACC-62 was 0.01 µM; in the assay on 786-0 it was 0.0199 µM; in the assay on CAKI-1, 0.0398 µM; with RXF 393, 0.794 µM; in the assay on UO-31, 0.2 µM; in the assay with PC-3 it was 0.0316 µM. Further, the GI50 with DU-145 is 0.01 µM; with Hs-578T, 0.158 µM; in assay [1], 50.1 µM; in the assay on SF-539, 0.0398 µM. For the same molecule, the figures for the TGI in the assay with SR, in the assay on HOP-92 and in the assay with LOX IMVI were 79.4 µM, 39.8 µM and 12.6 µM, respectively.
